From US20260028321A1, “1,3,4-OXADIAZOLE DERIVATIVE COMPOUNDS AS HISTONE DEACETYLASE 6 INHIBITOR, AND USES THEREOF” (CHONG KUN DANG PHARMACEUTICAL CORP., priority 2022, published 2026)

What was measured:
HDAC1 = HDAC1 (Homo sapiens (Human), UniProt Q13547); assay: HDAC1 enzyme activity inhibition assay (HDAC1 Fluorimetric Drug Discovery Assay Kit); type: biochemical; conditions: test substance 100, 1000, 10000 nM; 37° C. 60 minutes, developer 30 minutes; fluorescence Ex 390, Em 460
Procedure: (§1) The HDAC enzyme inhibition ability of the test substance was measured using the HDAC1 Fluorimetric Drug Discovery Assay Kit (Enzo life sciences: BML-AK511) and the HDAC6 human recombinant (Calbiochem: 382180). In the HDAC1 assay, the test substance was treated at concentrations of 100, 1000, and 10000 nM, and in the HDAC6 assay, the test substance was treated at concentrations of 0.1, 1, 10, 100, and 1000 nM. After sample treatment, the samples were reacted at 37° C. for 60 minutes, followed by reaction at 37° C. for 30 minutes by treatment with a developer, and fluorescence intensities (Ex 390, Em 460) thereof were measured using FlexStatin3 (Molecular device).

HDAC6 human recombinant = HDAC6 human recombinant (Homo sapiens (Human), UniProt Q9UBN7); assay: HDAC6 enzyme activity inhibition assay (fluorimetric); type: biochemical; conditions: test substance 0.1-1000 nM; 37° C. 60 minutes, developer 30 minutes; fluorescence Ex 390, Em 460
Procedure: as §1

Sequence of HDAC6 human recombinant (Q9UBN7 whole entry): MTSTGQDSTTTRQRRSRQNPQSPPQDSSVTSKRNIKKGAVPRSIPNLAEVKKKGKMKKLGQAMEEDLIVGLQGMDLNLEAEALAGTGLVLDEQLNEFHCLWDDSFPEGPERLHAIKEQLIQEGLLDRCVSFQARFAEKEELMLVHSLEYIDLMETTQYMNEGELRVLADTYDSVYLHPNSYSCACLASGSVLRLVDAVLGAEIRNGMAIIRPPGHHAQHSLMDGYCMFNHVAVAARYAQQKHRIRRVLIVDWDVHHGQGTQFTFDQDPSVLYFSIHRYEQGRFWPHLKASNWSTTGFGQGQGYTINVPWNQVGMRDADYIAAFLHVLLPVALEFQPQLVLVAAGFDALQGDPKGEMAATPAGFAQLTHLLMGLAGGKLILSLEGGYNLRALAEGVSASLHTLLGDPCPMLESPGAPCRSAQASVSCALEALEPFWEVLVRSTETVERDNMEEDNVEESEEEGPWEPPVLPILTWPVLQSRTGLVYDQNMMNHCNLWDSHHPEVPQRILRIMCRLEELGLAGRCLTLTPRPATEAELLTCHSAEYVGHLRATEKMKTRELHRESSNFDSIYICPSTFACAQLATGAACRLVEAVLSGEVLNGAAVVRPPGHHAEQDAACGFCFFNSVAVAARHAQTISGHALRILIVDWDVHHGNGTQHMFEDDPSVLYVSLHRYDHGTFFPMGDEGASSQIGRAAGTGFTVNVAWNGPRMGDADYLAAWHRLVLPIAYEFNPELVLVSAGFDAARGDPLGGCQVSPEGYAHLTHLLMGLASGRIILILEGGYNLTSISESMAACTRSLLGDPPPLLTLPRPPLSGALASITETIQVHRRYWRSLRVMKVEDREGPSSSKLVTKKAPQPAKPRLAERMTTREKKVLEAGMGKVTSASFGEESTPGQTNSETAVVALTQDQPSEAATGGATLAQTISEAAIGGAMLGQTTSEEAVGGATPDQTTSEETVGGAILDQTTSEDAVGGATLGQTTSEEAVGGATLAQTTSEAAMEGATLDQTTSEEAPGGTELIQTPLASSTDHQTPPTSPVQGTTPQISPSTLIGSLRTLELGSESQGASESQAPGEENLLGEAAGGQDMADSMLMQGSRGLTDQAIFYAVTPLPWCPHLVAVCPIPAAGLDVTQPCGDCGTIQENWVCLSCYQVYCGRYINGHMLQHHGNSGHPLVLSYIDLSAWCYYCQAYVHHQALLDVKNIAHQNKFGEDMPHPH
Sequence of HDAC1 (Q13547 whole entry): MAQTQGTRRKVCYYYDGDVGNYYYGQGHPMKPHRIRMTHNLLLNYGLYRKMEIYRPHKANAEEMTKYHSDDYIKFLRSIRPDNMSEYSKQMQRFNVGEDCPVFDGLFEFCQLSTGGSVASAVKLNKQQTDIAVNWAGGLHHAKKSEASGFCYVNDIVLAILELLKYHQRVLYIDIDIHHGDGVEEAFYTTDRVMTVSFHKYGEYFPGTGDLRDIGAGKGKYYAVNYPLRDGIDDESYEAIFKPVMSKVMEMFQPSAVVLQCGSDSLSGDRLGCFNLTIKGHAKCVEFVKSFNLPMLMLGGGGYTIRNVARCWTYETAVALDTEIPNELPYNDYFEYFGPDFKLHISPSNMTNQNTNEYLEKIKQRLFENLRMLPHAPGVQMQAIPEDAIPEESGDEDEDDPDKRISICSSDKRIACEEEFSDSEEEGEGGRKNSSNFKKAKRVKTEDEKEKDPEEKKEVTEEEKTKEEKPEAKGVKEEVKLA

SMILES	IC50 (HDAC1) [µM]	IC50 (HDAC6 human recombinant) [nM]
CN1CCN(c2c(N(Cc3ccc(-c4nnc(C(F)F)o4)cn3)c3cccc(-c4cccnc4)c3)c(=O)c2=O)CC1 [Compound 18, 3-(((5-(5-(difluoromethyl)-1,3,4-oxadiazol-2-yl)pyridin-2-yl)methyl)(3-(pyridin-3-yl)phenyl)amino)-4-(4-methylpiperazin-1-yl)cyclobut-3-ene-1,2-dione]	> 10	51
O=c1c(N2CC3(C2)CN(C2COC2)C3)c(N(Cc2ccc(-c3nnc(C(F)F)o3)cc2F)c2ccccc2)c1=O [Compound 10, 3-((4-(5-(difluoromethyl)-1,3,4-oxadiazol-2-yl)-2-fluorobenzyl)(phenyl)amino)-4-(6-(oxetan-3-yl)-2,6-diazaspiro[3.3]heptan-2-yl)cyclobut-3-ene-1,2-dione]	> 10	56
CN1CCN(c2c(N(Cc3ccc(-c4nnc(C(F)F)o4)cc3F)c3cccc(Br)c3)c(=O)c2=O)CC1 [Compound 12, 3-((3-bromophenyl)(4-(5-(difluoromethyl)-1,3,4-oxadiazol-2-yl)-2-fluorobenzyl)amino)-4-(4-methylpiperazin-1-yl)cyclobut-3-ene-1,2-dione]	> 10	30
O=c1c(N(Cc2ncc(-c3nnc(C(F)F)o3)cc2F)c2ccccc2)c(N2C[C@@H]3C[C@H]2CN3C2COC2)c1=O [Compound 21, 3-(((5-(5-(difluoromethyl)-1,3,4-oxadiazol-2-yl)-3-fluoropyridin-2-yl)methyl)(phenyl)amino)-4-((1S,4S)-5-(oxetan-3-yl)-2,5-diazabicyclo[2.2.1]heptan-2-yl)cyclobut-3-ene-1,2-dione]	> 10	–
O=c1c(N2CCS(=O)(=O)CC2)c(N(Cc2ccc(-c3nnc(C(F)F)o3)cc2F)c2ccccc2)c1=O [Compound 3, 3-((4-(5-(difluoromethyl)-1,3,4-oxadiazol-2-yl)-2-fluorobenzyl)(phenyl)amino)-4-(1,1-dioxidothiomorpholino)cyclobut-3-ene-1,2-dione]	> 10	27
O=c1c(N(Cc2ccc(-c3nnc(C(F)F)o3)cc2F)c2ccccc2)c(N2C[C@@H]3C[C@H]2CN3C2COC2)c1=O [Compound 13, 3-((4-(5-(difluoromethyl)-1,3,4-oxadiazol-2-yl)-2-fluorobenzyl)(phenyl)amino)-4-((1S,4S)-5-(oxetan-3-yl)-2,5-diazabicyclo[2.2.1]heptan-2-yl)cyclobut-3-ene-1,2-dione]	> 10	24
CN1C[C@@H]2C[C@H]1CN2c1c(N(Cc2ccc(-c3nnc(C(F)F)o3)cn2)c2ccccc2)c(=O)c1=O [Compound 15, 3-(((5-(5-(difluoromethyl)-1,3,4-oxadiazol-2-yl)pyridin-2-yl)methyl)(phenyl)amino)-4-((1S,4S)-5-methyl-2,5-diazabicyclo[2.2.1]heptan-2-yl)cyclobut-3-ene-1,2-dione]	> 10	22
CN1CCN(c2c(N(Cc3ccc(-c4nnc(C(F)F)o4)cc3)c3ccccc3)c(=O)c2=O)CC1 [Compound 4, 3-((4-(5-(difluoromethyl)-1,3,4-oxadiazol-2-yl)benzyl)(phenyl)amino)-4-(4-methylpiperazin-1-yl)cyclobut-3-ene-1,2-dione]	> 10	31
CN1CCN(c2c(N(Cc3ccc(-c4nnc(C(F)F)o4)cc3F)c3cc(F)cc(-c4cccnc4)c3)c(=O)c2=O)CC1 [Compound 8, 3-((4-(5-(difluoromethyl)-1,3,4-oxadiazol-2-yl)-2-fluorobenzyl)(3-fluoro-5-(pyridin-3-yl)phenyl)amino)-4-(4-methylpiperazin-1-yl)cyclobut-3-ene-1,2-dione]	> 10	35
CN1CCN(c2c(N(Cc3ccc(-c4nnc(C(F)F)o4)cc3F)c3ccccc3)c(=O)c2=O)CC1 [Compound 1, 3-((4-(5-(difluoromethyl)-1,3,4-oxadiazol-2-yl)-2-fluorobenzyl)(phenyl)amino)-4-(4-methylpiperazin-1-yl)cyclobut-3-ene-1,2-dione]	> 10	22
O=c1c(N2CCS(=O)(=O)CC2)c(N(Cc2ccc(-c3nnc(C(F)F)o3)cc2)c2ccccc2)c1=O [Compound 5, 3-((4-(5-(difluoromethyl)-1,3,4-oxadiazol-2-yl)benzyl)(phenyl)amino)-4-(1,1-dioxidothiomorpholino)cyclobut-3-ene-1,2-dione]	> 10	29
CN1CCN(c2c(N(Cc3ccc(-c4nnc(C(F)F)o4)cc3F)c3cc(F)cc(Br)c3)c(=O)c2=O)CC1 [Compound 7, 3-((3-bromo-5-fluorophenyl)(4-(5-(difluoromethyl)-1,3,4-oxadiazol-2-yl)-2-fluorobenzyl)amino)-4-(4-methylpiperazin-1-yl)cyclobut-3-ene-1,2-dione]	> 10	36
CN1CCN(c2c(N(Cc3ccc(-c4nnc(C(F)F)o4)cc3F)c3ccc(F)c(F)c3)c(=O)c2=O)CC1 [Compound 22, 3-((4-(5-(difluoromethyl)-1,3,4-oxadiazol-2-yl)-2-fluorobenzyl)(3,4-difluorophenyl)amino)-4-(4-methylpiperazin-1-yl)cyclobut-3-ene-1,2-dione]	> 10	64

The next lines start with the values.

IC50 (HDAC1) [µM]	IC50 (HDAC6 human recombinant) [nM]	SMILES
> 10	–	CN1C[C@@H]2C[C@H]1CN2c1c(N(Cc2ccc(-c3nnc(C(F)F)o3)cc2F)c2ccccc2)c(=O)c1=O [Compound 14, 3-((4-(5-(difluoromethyl)-1,3,4-oxadiazol-2-yl)-2-fluorobenzyl)(phenyl)amino)-4-((1S,4S)-5-methyl-2,5-diazabicyclo[2.2.1]heptan-2-yl)cyclobut-3-ene-1,2-dione]
> 10	60	CN1CC2(C1)CN(c1c(N(Cc3ccc(-c4nnc(C(F)F)o4)cc3)c3ccccc3)c(=O)c1=O)C2 [Compound 11, 3-((4-(5-(difluoromethyl)-1,3,4-oxadiazol-2-yl)benzyl)(phenyl)amino)-4-(6-methyl-2,6-diazaspyro[3.3]heptan-2-yl)cyclobut-3-ene-1,2-dione]
> 10	–	O=c1c(N2CCS(=O)(=O)CC2)c(N(Cc2ncc(-c3nnc(C(F)F)o3)cc2F)c2ccccc2)c1=O [Compound 6, 3-(((5-(5-(difluoromethyl)-1,3,4-oxadiazol-2-yl)-3-fluoropyridin-2-yl)methyl)(phenyl)amino)-4-(1,1-dioxidothiomorpholino)cyclobut-3-ene-1,2-dione]
> 10	102	CN1CCN(c2c(N(Cc3ccc(-c4nnc(C(F)F)o4)cn3)c3cccc(-c4ccncc4)c3)c(=O)c2=O)CC1 [Compound 19, 3-(((5-(5-(difluoromethyl)-1,3,4-oxadiazol-2-yl)pyridin-2-yl)methyl)(3-(pyridin-4-y 1)phenyl)amino)-4-(4-methylpiperazin-1-yl)cyclobut-3-ene-1,2-dione]
> 10	–	CN1C[C@@H]2C[C@H]1CN2c1c(N(Cc2ncc(-c3nnc(C(F)F)o3)cc2F)c2ccccc2)c(=O)c1=O [Compound 20, 3-(((5-(5-(difluoromethyl)-1,3,4-oxadiazol-2-yl)-3-fluoropyridin-2-yl)methyl)(phenyl)amino)-4-((1S,4S)-5-methyl-2,5-diazabicyclo[2.2.1]heptan-2-yl)cyclobut-3-ene-1,2-dione]
> 10	161	O=c1c(N2CCOCC2)c(N(Cc2ccc(-c3nnc(C(F)(F)F)o3)cc2)c2ccccc2)c1=O [Compound 24, 3-morpholino-4-[N-[[4-[5-(trifluoromethyl)-1,3,4-oxadiazol-2-yl]phenyl]methyl]anilino]cyclobut-3-ene-1,2-dione]
> 10	43	O=c1c(N(Cc2ccc(-c3nnc(C(F)F)o3)cn2)c2ccccc2)c(N2C[C@@H]3C[C@H]2CN3C2COC2)c1=O [Compound 17, 3-(((5-(5-(difluoromethyl)-1,3,4-oxadiazol-2-yl)pyridin-2-yl)methyl)(phenyl)amino)-4-((1S,4S)-5-(oxetan-3-yl)-2,5-diazabicyclo[2.2.1]heptan-2-yl)cyclobut-3-ene-1,2-dione]
> 10	50	O=c1c(N2CCN(C3COC3)CC2)c(N(Cc2ccc(-c3nnc(C(F)F)o3)cc2F)c2ccc(F)c(F)c2)c1=O [Compound 23, 3-((4-(5-(difluoromethyl)-1,3,4-oxadiazol-2-yl)-2-fluorobenzyl)(3,4-difluorophenyl)amino)-4-(4-(oxetan-3-yl)piperazin-1-yl)cyclobut-3-ene-1,2-dione]
> 10	–	O=c1c(N2CCOCC2)c(N(Cc2ccc(-c3nnc(C(F)F)o3)cc2F)c2ccccc2)c1=O [Compound 2, 3-((4-(5-(difluoromethyl)-1,3,4-oxadiazol-2-yl)-2-fluorobenzyl)(phenyl)amino)-4-morpholinocyclobut-3-ene-1,2-dione]
> 10	28	CC(C)N1C[C@@H]2C[C@H]1CN2c1c(N(Cc2ccc(-c3nnc(C(F)F)o3)cn2)c2ccccc2)c(=O)c1=O [Compound 16, 3-(((5-(5-(difluoromethyl)-1,3,4-oxadiazol-2-yl)pyridin-2-yl)methyl)(phenyl)amino)-4-((1S,4S)-5-isopropyl-2,5-diazabicyclo[2.2.1]heptan-2-yl)cyclobut-3-ene-1,2-dione]
